ChEMBL document CHEMBL4715826, “Selective PPARδ Modulators Improve Mitochondrial Function: Potential Treatment for Duchenne Muscular Dystrophy (DMD)” (ACS Med Chem Lett, 2018)

Assays:
[1] = Half life in CD-1 mouse at 3 mg/kg, iv; assay type: ADME, organism-based; conditions: in vivo
[2] = AUC in CD-1 mouse at 3 mg/kg, iv; assay type: ADME, organism-based; parameters: dose 3 mg/kg; conditions: in vivo
[3] = Selectivity index, ratio of EC50 for transactivation of GAL4-fused PPARalpha LBD (unknown origin) transfected in CV1 cells to EC50 for transactivation of GAL4-fused human PPARdelta LBD (128 to residue at C-terminus) transfected in African green monkey CV1 cells by luciferase reporter gene assay
[4] = target: T1, Peroxisome proliferator-activated receptor alpha (Homo sapiens, UniProt Q07869); experiment: Modulator activity at GAL4-fused human PPARalpha LBD (unknown origin) transfected in African green monkey CV1 cells assessed as receptor transactivation by luciferase reporter gene assay; assay type: cell-based, CV-1
T1 sequence (Q07869 whole entry): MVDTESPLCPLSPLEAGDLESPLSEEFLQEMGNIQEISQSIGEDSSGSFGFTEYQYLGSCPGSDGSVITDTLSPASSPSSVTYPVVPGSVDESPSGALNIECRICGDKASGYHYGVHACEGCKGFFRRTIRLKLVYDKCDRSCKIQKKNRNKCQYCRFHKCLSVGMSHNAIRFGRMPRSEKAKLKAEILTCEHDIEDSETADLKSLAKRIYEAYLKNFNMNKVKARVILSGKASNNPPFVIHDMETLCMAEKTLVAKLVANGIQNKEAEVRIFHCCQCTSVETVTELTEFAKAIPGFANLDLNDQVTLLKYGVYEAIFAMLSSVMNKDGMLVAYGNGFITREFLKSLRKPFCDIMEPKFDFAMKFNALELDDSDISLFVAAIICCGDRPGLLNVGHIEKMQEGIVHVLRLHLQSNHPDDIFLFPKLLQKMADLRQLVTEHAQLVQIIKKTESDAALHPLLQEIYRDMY

[5] = target: T2, Peroxisome proliferator-activated receptor gamma (Homo sapiens, UniProt P37231); experiment: Modulator activity at GAL4-fused human PPARgamma LBD (unknown origin) transfected in African green monkey CV1 cells assessed as receptor transactivation by luciferase reporter gene assay; assay type: cell-based, CV-1
T2 sequence (P37231 whole entry): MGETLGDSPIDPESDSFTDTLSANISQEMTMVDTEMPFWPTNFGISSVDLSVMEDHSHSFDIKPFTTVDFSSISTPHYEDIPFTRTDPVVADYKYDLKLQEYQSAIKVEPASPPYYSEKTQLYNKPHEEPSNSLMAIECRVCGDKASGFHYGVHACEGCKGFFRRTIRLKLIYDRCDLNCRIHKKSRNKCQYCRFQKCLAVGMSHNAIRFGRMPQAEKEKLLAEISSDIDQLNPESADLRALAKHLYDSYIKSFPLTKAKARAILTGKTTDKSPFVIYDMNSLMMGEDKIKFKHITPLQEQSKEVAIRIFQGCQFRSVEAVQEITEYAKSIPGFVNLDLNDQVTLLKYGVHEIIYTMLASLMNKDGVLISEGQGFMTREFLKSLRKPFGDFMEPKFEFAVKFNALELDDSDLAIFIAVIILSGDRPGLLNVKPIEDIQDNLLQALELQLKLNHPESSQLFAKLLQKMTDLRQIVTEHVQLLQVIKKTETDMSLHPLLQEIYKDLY

[6] = Clearance in CD-1 mouse at 3 mg/kg, iv; assay type: ADME, organism-based; conditions: in vivo
[7] = target: T3, Peroxisome proliferator-activated receptor delta (Homo sapiens, UniProt Q03181)
T3 sequence (Q03181 whole entry): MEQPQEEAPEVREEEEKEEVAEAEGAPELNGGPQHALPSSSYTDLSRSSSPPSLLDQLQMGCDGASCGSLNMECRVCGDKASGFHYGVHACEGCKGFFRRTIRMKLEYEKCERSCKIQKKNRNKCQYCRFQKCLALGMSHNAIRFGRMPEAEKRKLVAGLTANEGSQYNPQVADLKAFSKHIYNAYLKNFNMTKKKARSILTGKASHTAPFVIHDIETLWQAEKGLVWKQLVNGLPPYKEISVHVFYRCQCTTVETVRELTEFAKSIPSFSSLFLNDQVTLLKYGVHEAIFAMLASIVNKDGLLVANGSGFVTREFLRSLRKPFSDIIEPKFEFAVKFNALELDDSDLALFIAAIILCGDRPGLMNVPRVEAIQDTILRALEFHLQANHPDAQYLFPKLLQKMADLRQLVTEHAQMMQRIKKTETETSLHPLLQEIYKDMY
Description: Modulator activity at GAL4-fused human PPARdelta LBD (128 to residue at C-terminus) transfected in African green monkey CV1 cells assessed as receptor transactivation by luciferase reporter gene assay

[8] = AUC in CD-1 mouse at 1 mg/kg, iv; assay type: ADME, organism-based; parameters: dose 1 mg/kg; conditions: in vivo
[9] = Half life in CD-1 mouse at 1 mg/kg, iv; assay type: ADME, organism-based; conditions: in vivo

Compound	half-life [1]	AUC [2]	EC50 [4]	EC50 [5]	clearance [6]	EC50 [7]	AUC [8]	half-life [9]	Ratio EC50 [3]
C/C(=C\COc1ccccc1Cn1c(C)cnc1-c1ccc(OC(F)(F)F)cc1)CCC(=O)O	186 min		2.29 µM	> 10 µM	70 mL/min/kg	0.0003 µM	240 ng·h/mL		
Cc1cnc(-c2ccc(Cl)cc2)n1Cc1ccccc1OCCC[C@@H](C)CC(=O)O			> 100 µM	> 10 µM		0.0055 µM	752 ng·h/mL	84 min	
Cc1cnc(-c2ccc(-c3ccco3)cc2)n1Cc1ccccc1OCCCCCC(=O)O	18 min	180 ng·h/mL	6.97 µM	> 10 µM		0.0007 µM			
Cc1ccc(-c2ncc(C)n2Cc2ccccc2OCCC[C@@H](C)CC(=O)O)cc1			78.5 µM	> 10 µM		0.02 µM			
Cc1cnc(-c2ccc(-c3ccco3)cc2)n1Cc1ccccc1OCCC[C@@H](C)CC(=O)O	84 min	650 ng·h/mL	> 100 µM	> 10 µM	73 mL/min/kg				
C/C(=C\COc1ccccc1Cc1sc(C)nc1-c1ccc(-c2ccco2)cc1)CCC(=O)O	48 min	900 ng·h/mL	7.25 µM	> 10 µM	55 mL/min/kg	0.0095 µM			>1000

More lines, main results first:

half-life [1]	AUC [2]	EC50 [4]	EC50 [5]	clearance [6]	EC50 [7]	AUC [8]	half-life [9]	Compound	Ratio EC50 [3]
12 min	280 ng·h/mL	5.84 µM	> 10 µM	180 mL/min/kg	0.0015 µM			C/C(=C\COc1ccccc1Cc1c(-c2ccc(-c3ccco3)cc2)noc1C)CCC(=O)O	>1000
42 min	70 ng·h/mL		> 10 µM	720 mL/min/kg	0.059 µM			C/C(=C\COc1ccccc1Cc1c(C)ncn1-c1ccc(-c2ccco2)cc1)CCC(=O)O	>1000
		15.1 µM	> 10 µM					Cc1cnc(-c2ccc(OC(F)F)cc2)n1Cc1ccccc1OCCC[C@@H](C)CC(=O)O	
